Measurements reported in patent US20260250325A1, “Antiviral Polypeptide Membrane Fusion Inhibitor, and Preparation Method and Application Thereof” (priority 2025, published 2026).
Where a SMILES comes first, the peptide text is derived from it. The star is where a group is joined. Succinyl(4-O-cholesteryl) = CC(C)CCC[C@@H](C)[C@H]1CC[C@H]2[C@@H]3CC=C4C[C@@H](OC(=O)CCC(=O)*)CC[C@]4(C)[C@H]3CC[C@]12C

How the values were obtained:
Assay type in all cases: cell-based
RSV A long virus strain = settings: RSV A long virus strain, HEp-2 cells, plaque reduction, 1 day; read-out: IC50
How it was run: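 HEp-2 cells (30000/well) infected with 100 PFU virus premixed 1 h with compound (8 concentrations, duplicate); after 2 h adsorption, cultured 1 day at 37 °C under 0.8% CMC overlay with compound. Plaques immunostained (RSV antibody, TrueBlue) and counted; IC50 and CC50 by non-linear fitting of % inhibition versus virus and cell controls.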

hMPV A2 = settings: Vero cells, plaque reduction
Description: (§1) African green monkey kidney cells (Vero) were sourced from the ATCC, with catalog number CCL-81. The cells were cultured in a DMEM culture solution in which 10% fetal bovine serum, 1% non-essential amino acids, 1% sodium pyruvate, 1% L-glutamine, 100 U/ml penicillin, and 100 μg/ml streptomycin were added.
(§2) A hMPV plaque experiment culture medium consisted of an Opti-MEM culture solution added with 1% non-essential amino acids, 100 U/mL penicillin, and 100 μg/mL streptomycin.
(§3) hMPV virus strains A2 and B1 were constructed by WuXi App Tec.
(§4) This study used a plaque reduction experiment to detect the in-vitro activity of a test sample against the hMPV virus strains A2 and B1.
(§5) The test sample and an experimental system were tested at 8 concentrations in duplicated wells. The Vero cells were digested with trypsin and then diluted to a concentration of 400,000 cells per milliliter by using a cell culture solution containing 2% serum. The diluted cells were added to a 96-well cell test board, with 100 μL per well, corresponding to 40000 cells per well. The cells were cultured overnight in a 37° C. incubator with 5% CO2.
(§6) On the second day, the test sample was diluted in an experimental culture medium at a fold ratio. The sample diluted at a fold ratio and an equal volume of virus (approximately 200 PFU per well) were well mixed and incubated at 33° C. in 5% CO2 for 1 h. Then, the culture solution in the 96-well cell test board was discarded, the sample virus mixed solution (100 μL) was added to the 96-well cell culture plate, and incubated at 37° C. in 5% CO2 for 2 hours. After 2 h, the sample virus mixed solution was discarded, 200 μL of an experiment culture medium containing the test sample with a corresponding concentration was added, and the culture solution contained 0.8% CMC and 5 μg/ml trypsin. A final concentration of DMSO in the culture solution was 0.5%. A system control antibody was directly added to the experiment culture solution containing 0.8% CMC and 5 μg/ml trypsin. A cell control (cells, without compound treatment or viral infection) and a viral control (cell infection virus, without compound treatment) were set. The cells were cultured for 1 day in the 33° C. incubator with 5% CO2.
(§7) The cells were fixed with 4% paraformaldehyde, and then permeabilization was performed with 0.5% Triton X-100. After the plate was washed with DPBS, a hMPV specific antibody (1:2000 dilution) was added and incubated at 37° C. for 1.5 h. Then, a secondary antibody (1:1000 dilution) was added and incubated at 37° C. for 1 hour. The secondary antibody was discarded, a TrueBlue solution was added, dyeing was performed for approximately 10 minutes; and the plate was washed with running water and then air-dried, and the number of spots in each well was counted by using a microplate imaging counter.
(§8) Raw data was used for analyzing the antiviral activity of the test samples. A calculation formula was shown as follows.
(§9) % inhibition rate=100−(sample value-cell control average value)/(virus control average value-cell control average value)×100
(§10) Non-linear fitting analysis was performed on the inhibition rate of the sample by using GraphPad Prism (version 10), so as to calculate an EC50 value for the sample. A fitting formula was log (inhibitor) vs. response-Variable slope (four parameters).

hMPV B1 = settings: Vero cells, plaque reduction
Description: as §1, §2, §3, §4, §5, §6, §7, §8, §9, §10

Row | Structure (SMILES) | IC50 (RSV A long virus strain) | EC50 (hMPV A2) | EC50 (hMPV B1)
1 | CC[C@H](C)[C@H](NC(=O)[C@H](CCCCN)NC(=O)[C@H](CCC(=O)O)NC(=O)[C@H](CC(C)C)NC(=O)[C@H](CO)NC(=O)[C@H](CCC(N)=O)NC(=O)[C@H](CC(N)=O)NC(=O)[C@@H](NC(=O)[C@H](CCCCN)NC(=O)[C@H](CCC(=O)O)NC(=O)[C@H](CC(N)=O)NC(=O)[C@@H](NC(=O)[C@H](CCC(N)=O)NC(=O)[C@H](CO)NC(=O)[C@H](C)NC(=O)[C@H](CC(=O)O)NC(=O)[C@H](Cc1ccccc1)NC(=O)[C@@H](NC(=O)[C@H](CC(C)C)NC(=O)[C@H](CCC(=O)O)NC(=O)[C@H](CC(=O)O)NC(=O)[C@H](Cc1ccc(O)cc1)NC(C)=O)C(C)C)C(C)C)[C@@H](C)CC)C(=O)N[C@@H](CCCNC(=N)N)C(=O)N[C@@H](CCCCN)C(=O)N[C@@H](CO)C(=O)N[C@@H](CC(=O)O)C(=O)N[C@@H](CCC(=O)O)C(=O)N[C@@H](CC(C)C)C(=O)N[C@@H](CC(C)C)C(=O)N[C@@H](Cc1c[nH]cn1)C(=O)N[C@@H](CC(N)=O)C(=O)N[C@H](C(=O)NCC(=O)N[C@@H](CO)C(=O)NCC(=O)N[C@@H](CO)C(=O)NCC(=O)N[C@@H](CCCCNC(=O)CCC(=O)O[C@H]1CC[C@@]2(C)C(=CC[C@H]3[C@@H]4CC[C@H]([C@H](C)CCCC(C)C)[C@@]4(C)CC[C@@H]32)C1)C(N)=O)C(C)C [Compound 25] (Ac-YDELVFDASQVNEKINQSLEKIRKSDELLHNVGSGSGK(Succinyl(4-O-cholesteryl))-NH2) | 28.7 nM | 86.4 nM | 38.1 nM
2 | CC[C@H](C)[C@H](NC(=O)[C@H](CO)NC(=O)[C@H](C)NC(=O)[C@H](CC(=O)O)NC(=O)[C@H](Cc1ccccc1)NC(=O)[C@H](CCC(=O)O)NC(=O)[C@H](CC(=O)O)NC(C)=O)C(=O)N[C@@H](CO)C(=O)N[C@@H](CCC(N)=O)C(=O)N[C@H](C(=O)N[C@@H](CC(N)=O)C(=O)N[C@@H](CCC(=O)O)C(=O)N[C@@H](CCCCN)C(=O)N[C@H](C(=O)N[C@@H](CC(N)=O)C(=O)N[C@@H](CCC(N)=O)C(=O)N[C@@H](CO)C(=O)N[C@@H](CC(C)C)C(=O)N[C@@H](CCC(=O)O)C(=O)N[C@@H](CCC(=O)O)C(=O)N[C@H](C(=O)N[C@@H](CCCNC(=N)N)C(=O)N[C@@H](CCCCN)C(=O)N[C@@H](CO)C(=O)N[C@@H](CC(=O)O)C(=O)N[C@@H](CCC(=O)O)C(=O)N[C@@H](CC(C)C)C(=O)N[C@@H](CC(C)C)C(=O)N[C@@H](Cc1c[nH]cn1)C(=O)N[C@@H](CC(N)=O)C(=O)N[C@@H](CCC(=O)O)C(=O)N[C@@H](C)C(=O)N[C@@H](C)C(=O)N[C@@H](C)C(=O)N[C@@H](CCCCN)C(=O)N[C@@H](CCCCNC(=O)CCC(=O)O[C@H]1CC[C@@]2(C)C(=CC[C@H]3[C@@H]4CC[C@H]([C@H](C)CCCC(C)C)[C@@]4(C)CC[C@@H]32)C1)C(N)=O)[C@@H](C)CC)[C@@H](C)CC)C(C)C [Compound 28] (Ac-DEFDASISQVNEKINQSLEEIRKSDELLHNEAAAKK(Succinyl(4-O-cholesteryl))-NH2) | 12.4 nM | 58.6 nM | 13.8 nM
3 | CC[C@H](C)[C@H](NC(=O)[C@H](CCCCN)NC(=O)[C@H](CCC(=O)O)NC(=O)[C@H](CC(C)C)NC(=O)[C@H](CO)NC(=O)[C@H](CCC(N)=O)NC(=O)[C@H](CC(N)=O)NC(=O)[C@@H](NC(=O)[C@H](CCCCN)NC(=O)[C@H](CCC(=O)O)NC(=O)[C@H](CC(N)=O)NC(=O)[C@@H](NC(=O)[C@H](CCC(N)=O)NC(=O)[C@H](CO)NC(=O)[C@H](C)NC(=O)[C@H](CC(=O)O)NC(=O)[C@H](Cc1ccccc1)NC(=O)[C@@H](NC(=O)[C@H](CC(C)C)NC(=O)[C@H](CCC(=O)O)NC(=O)[C@H](CC(=O)O)NC(=O)[C@H](Cc1ccc(O)cc1)NC(C)=O)C(C)C)C(C)C)[C@@H](C)CC)C(=O)N[C@@H](CCCNC(=N)N)C(=O)N[C@@H](CCCCN)C(=O)N[C@@H](CO)C(=O)N[C@@H](CC(=O)O)C(=O)N[C@@H](CCC(=O)O)C(=O)N[C@@H](CC(C)C)C(=O)N[C@@H](CC(C)C)C(=O)N[C@@H](Cc1c[nH]cn1)C(=O)N[C@@H](CC(N)=O)C(=O)N[C@H](C(=O)N[C@@H](CCC(=O)O)C(=O)N[C@@H](C)C(=O)N[C@@H](C)C(=O)N[C@@H](C)C(=O)N[C@@H](CCCCN)C(=O)N[C@@H](CCCCNC(=O)CCC(=O)O[C@H]1CC[C@@]2(C)C(=CC[C@H]3[C@@H]4CC[C@H]([C@H](C)CCCC(C)C)[C@@]4(C)CC[C@@H]32)C1)C(N)=O)C(C)C [Compound 30] (Ac-YDELVFDASQVNEKINQSLEKIRKSDELLHNVEAAAKK(Succinyl(4-O-cholesteryl))-NH2) | 14.9 nM | 94.8 nM | 51.3 nM
4 | CC[C@H](C)[C@H](NC(=O)[C@H](CCCCN)NC(=O)[C@H](CCCCN)NC(=O)[C@H](CC(C)C)NC(=O)[C@H](CO)NC(=O)[C@H](CCC(=O)O)NC(=O)[C@H](CCC(=O)O)NC(=O)[C@@H](NC(=O)[C@H](CCCCN)NC(=O)[C@H](CCCCN)NC(=O)[C@H](CC(N)=O)NC(=O)[C@@H](NC(=O)[C@H](CCC(=O)O)NC(=O)[C@H](CCC(=O)O)NC(=O)[C@@H](NC(=O)[C@H](CCCCN)NC(=O)[C@H](CCCCN)NC(=O)[C@H](CC(=O)O)NC(=O)[C@H](Cc1ccccc1)NC(=O)[C@H](CCC(=O)O)NC(=O)[C@H](CC(=O)O)NC(=O)[C@H](Cc1c[nH]c2ccccc12)NC(C)=O)[C@@H](C)CC)C(C)C)[C@@H](C)CC)C(=O)N[C@@H](CCC(=O)O)C(=O)N[C@@H](CCC(=O)O)C(=O)N[C@@H](CO)C(=O)N[C@@H](CC(=O)O)C(=O)N[C@@H](CCCCN)C(=O)N[C@@H](CCCCN)C(=O)N[C@@H](CC(C)C)C(=O)N[C@@H](CCC(=O)O)C(=O)N[C@@H](CCC(=O)O)C(=O)N[C@H](C(=O)N[C@@H](CC(N)=O)C(=O)N[C@@H](C)C(=O)N[C@@H](CCC(=O)O)C(=O)N[C@@H](C)C(=O)N[C@@H](C)C(=O)N[C@@H](C)C(=O)N[C@@H](CCCCN)C(=O)N[C@@H](CCCCNC(=O)CCC(=O)O[C@H]1CC[C@@]2(C)C(=CC[C@H]3[C@@H]4CC[C@H]([C@H](C)CCCC(C)C)[C@@]4(C)CC[C@@H]32)C1)C(N)=O)C(C)C [Compound 40] (Ac-WDEFDKKIEEVNKKIEESLKKIEESDKKLEEVNAEAAAKK(Succinyl(4-O-cholesteryl))-NH2) | 11.7 nM | 13.8 nM | 7.47 nM
5 | CC[C@H](C)[C@H](NC(=O)[C@H](CCCCN)NC(=O)[C@H](CCCCN)NC(=O)[C@H](CC(C)C)NC(=O)[C@H](CO)NC(=O)[C@H](CCC(=O)O)NC(=O)[C@H](CCC(=O)O)NC(=O)[C@@H](NC(=O)[C@H](CCCCN)NC(=O)[C@H](CCCCN)NC(=O)[C@H](CC(N)=O)NC(=O)[C@@H](NC(=O)[C@H](CCC(=O)O)NC(=O)[C@H](CCC(=O)O)NC(=O)[C@@H](NC(=O)[C@H](CCCCN)NC(=O)[C@H](CCCCN)NC(=O)[C@H](CC(=O)O)NC(=O)[C@H](Cc1ccccc1)NC(=O)[C@H](CCC(=O)O)NC(=O)[C@H](CC(=O)O)NC(=O)[C@H](Cc1c[nH]c2ccccc12)NC(C)=O)[C@@H](C)CC)C(C)C)[C@@H](C)CC)C(=O)N[C@@H](CCC(=O)O)C(=O)N[C@@H](CCC(=O)O)C(=O)N[C@@H](CO)C(=O)N[C@@H](CC(=O)O)C(=O)N[C@@H](CCCCN)C(=O)N[C@@H](CCCCN)C(=O)N[C@@H](CC(C)C)C(=O)N[C@@H](CCC(=O)O)C(=O)N[C@@H](CCC(=O)O)C(=O)N[C@H](C(=O)N[C@@H](CC(N)=O)C(=O)N[C@@H](CCC(=O)O)C(=O)N[C@@H](C)C(=O)N[C@@H](C)C(=O)N[C@@H](C)C(=O)N[C@@H](CCCCN)C(=O)N[C@@H](CCCCNC(=O)CCC(=O)O[C@H]1CC[C@@]2(C)C(=CC[C@H]3[C@@H]4CC[C@H]([C@H](C)CCCC(C)C)[C@@]4(C)CC[C@@H]32)C1)C(N)=O)C(C)C [Compound 41] (Ac-WDEFDKKIEEVNKKIEESLKKIEESDKKLEEVNEAAAKK(Succinyl(4-O-cholesteryl))-NH2) | 14.8 nM | 11.7 nM | 9.46 nM
